According to patent US20090197856A1, “ANTIVIRAL COMPOUNDS” (Genelabs Technologies, Inc., priority 2007, published 2009):

The compounds below were run against T1, NS5B (Hepatitis C virus genotype 1b, UniProt Q9WMX2) (assay: Polymerase assay, incorporation of radiolabeled GTP with biotinylated oligoG13 primer and polycytidylic acid RNA template). Settings: polyC RNA template, biotin-oligoG13 primer, tritiated GTP, 3 nM NS5B, 30° C., 2 hours.
T1 construct: 3 nM NS5B, 20 nM polyC RNA template
T1 sequence (Q9WMX2 2420-3010): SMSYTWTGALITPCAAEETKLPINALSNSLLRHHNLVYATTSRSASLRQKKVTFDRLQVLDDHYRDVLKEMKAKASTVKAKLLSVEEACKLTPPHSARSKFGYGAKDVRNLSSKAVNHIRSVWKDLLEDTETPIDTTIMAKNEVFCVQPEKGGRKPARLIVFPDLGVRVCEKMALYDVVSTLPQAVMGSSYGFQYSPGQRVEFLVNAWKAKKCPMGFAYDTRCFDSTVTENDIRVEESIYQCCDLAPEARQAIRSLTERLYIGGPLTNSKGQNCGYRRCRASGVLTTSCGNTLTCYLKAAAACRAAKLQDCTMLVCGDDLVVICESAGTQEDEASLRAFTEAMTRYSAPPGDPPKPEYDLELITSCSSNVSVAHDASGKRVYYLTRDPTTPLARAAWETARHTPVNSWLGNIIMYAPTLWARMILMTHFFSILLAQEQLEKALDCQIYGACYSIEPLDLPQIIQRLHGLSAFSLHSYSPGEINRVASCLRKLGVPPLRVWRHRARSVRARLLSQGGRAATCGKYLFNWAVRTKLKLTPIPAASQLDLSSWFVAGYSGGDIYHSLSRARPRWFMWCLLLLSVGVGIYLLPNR
Assay type: biochemical
Procedure: The polymerase activity was also assayed by measuring incorporation of radiolabeled GTP into an RNA product using a biotinylated oligoG13 primer with a polycytidylic acid RNA template. Typically, the assay mixture (40 μL) contains 50 mM HEPES (pH 7.3), 2.5 mM magnesium acetate, 2 mM sodium chloride, 37.5 mM potassium acetate, 5 mM DTT, 0.4 U/mL RNasin, 2.5% glycerol, 3 nM NS5B, 20 nM polyC RNA template, 20 nM biotin-oligoG13 primer, and 0.2 μM tritiated guanosine triphosphate. Test compounds were initially dissolved and diluted in 100% DMSO and further diluted into aqueous buffer, producing a final concentration of 5% DMSO. Typically, compounds were tested at concentrations between 0.2 nM and 10 μM. Reactions were started with addition of tritiated guanosine triphosphate and allowed to continue at 30° C. for 2 hours. Reactions were quenched with 100 μL stop buffer containing 10 mM EDTA and 1 μg/mL streptavidin-coated scintillation proximity beads. Reaction plates were incubated at 4° C. for 10 hours and then incorporation of radioactivity was determined by scintillation counting. The table below lists the IC50 values of compounds determined using this procedure.
`CCN(C)Cc1c(C(=O)N(C)Cc2ccccc2)n2c3c(cccc13)-c1c(C3CCCCC3)c3ccc(C(=O)O)cc3n1CCC2` [Compound 323] showed an IC50 of 9 nM.
For `CCN(C)Cc1c(C(=O)N2CCC(N(C)C)CC2)n2c3c(cccc13)-c1c(C3CCCCC3)c3ccc(C(=O)O)cc3n1CCC2` [Compound 324], the IC50 was 6 nM.
Work on `CCN(C)Cc1c(C(=O)N2CCN(C(C)=O)CC2)n2c3c(cccc13)-c1c(C3CCCCC3)c3ccc(C(=O)O)cc3n1CCC2` [Compound 325] yielded an IC50 of 7 nM.
`CCN(C)Cc1c(C(=O)N2CC[C@@H](NC(C)=O)C2)n2c3c(cccc13)-c1c(C3CCCCC3)c3ccc(C(=O)O)cc3n1CCC2` [Compound 326] gave an IC50 of 6 nM.
With `NC1CCN2CCn3c(c(C4CCCCC4)c4ccc(C(=O)O)cc43)-c3ccc(F)c1c32` (stereo not drawn) [Compound 448] the IC50 was 5.05 nM.
Compound `CC1(C)C(=O)N2CCn3c(c(C4CCCCC4)c4ccc(C(=O)O)cc43)-c3cccc(c32)[C@@H]1N` [Compound 496, (4S)-4-amino-15-cyclohexyl-5,5-dimethyl-6-oxo-5,6,8,9-tetrahydro-4H-indolo[1′,2′:4,5][1,4]diazepino[6,7,1-ij]quinoline-12-carboxylic Acid] has an IC50 of 200 nM.
In the case of `CC1(C)CN2CCn3c(c(C4CCCCC4)c4ccc(C(=O)O)cc43)-c3cccc(c32)[C@@H]1N` [Compound 497, (4R)-4-amino-15-cyclohexyl-5,5-dimethyl-5,6,8,9-tetrahydro-4H-indolo[1′,2′:4,5][1,4]diazepino[6,7,1-ij]quinoline-12-carboxylic Acid], the IC50 is reported as 23 nM.
`CC1(C)C(=O)N2CCn3c(c(C4CCCCC4)c4ccc(C(=O)O)cc43)-c3cccc(c32)[C@H]1N` [Compound 498] gave an IC50 of 20 nM.
Compound `CC1(C)CN2CCn3c(c(C4CCCCC4)c4ccc(C(=O)O)cc43)-c3cccc(c32)[C@H]1N` [Compound 499] has an IC50 of 4 nM.
